Source: patent US6620916B1, “Modified physiologically active proteins and medicinal compositions containing the same” (Ajinomoto Co., Inc., priority 1996, dated 2003)
Entries after “also recorded” stand apart in the source; their conditions may differ.

What was measured:
ASGR = target: T1, ASGR (Mus musculus, UniProt P24721+P34927); assay: Hepatocyte binding test with 125I-labeled ligands, Scatchard analysis; conditions: mouse hepatocytes, 4° C., 2 hours
T1 construct: endogenous in cells; host or cells: primary hepatocytes from C57BL/6 mice (7W, male)
T1 sequence (P34927 1-284): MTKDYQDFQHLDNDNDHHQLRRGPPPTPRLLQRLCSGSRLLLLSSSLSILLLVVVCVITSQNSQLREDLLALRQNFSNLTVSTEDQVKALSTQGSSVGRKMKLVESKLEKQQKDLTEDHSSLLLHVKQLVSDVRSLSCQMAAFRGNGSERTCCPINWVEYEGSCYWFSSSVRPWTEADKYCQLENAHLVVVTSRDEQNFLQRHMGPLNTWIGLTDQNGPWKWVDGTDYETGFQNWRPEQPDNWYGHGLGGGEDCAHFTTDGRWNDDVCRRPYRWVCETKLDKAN
T1 sequence (P24721 1-301): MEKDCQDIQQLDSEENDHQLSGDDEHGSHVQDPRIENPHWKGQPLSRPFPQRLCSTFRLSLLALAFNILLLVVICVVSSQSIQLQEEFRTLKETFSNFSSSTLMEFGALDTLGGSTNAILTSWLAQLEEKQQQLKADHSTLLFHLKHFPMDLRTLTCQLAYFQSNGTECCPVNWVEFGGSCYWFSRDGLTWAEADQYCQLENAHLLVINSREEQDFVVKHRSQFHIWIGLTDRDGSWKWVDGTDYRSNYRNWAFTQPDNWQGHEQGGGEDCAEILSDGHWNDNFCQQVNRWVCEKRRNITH
Method: The test for binding of a modified product to hepatocytes was conducted using mouse-separated hepatocytes prepared by the collagenase reflux method which is a modification of the method of Berry et al. (M. N. Berry et al., J. Cell Biol., 43, 506-520 (1969)). That is, seven mice (C57BL/6, 7W, male) were refluxed with a collagenase (type I, supplied by Wako Pure Chemical Industries, Ltd.) and each liver thereof was then severed. Each liver was filtered using a cell filter. Hepatocytes were then collected through centrifugation at a low rate (50 g×1 min), and incubated for from 1 to 4 hours in a D-MEM medium containing 10% FBS (supplied by Gibco, containing 100 U/ml of penicillin, 100 μg/ml of streptomycin and 50 μg/ml of gentamicin) using a tissue culture dish of 150 mm (supplied by Iwaki Garasu K.K.). […]
The hepatocyte binding test was conducted by the method of Chang et al. (T. Chang et al., BBA 942. 57-64 (1988)). […] Thereafter, the radioactivity by the non-specific binding was subtracted from the radioactivity of 0.8 ml of 1 ml of the 0.1 N NaOH solution containing 0.5% SDS, and the radioactivity of the total amount thereof was calculated from the above-obtained value. The thus-calculated value was defined as an amount of a bound fraction. […] The total protein amount of the cells was calculated by the Lorry method using 0.1 ml of the solution. […]

[1] = tested on: mouse-separated hepatocytes; assay: Uptake of 125I-labeled modified product into hepatocytes; type: cell-based; conditions: 24 nM, 37° C.
Method: The test for uptake into hepatocytes was also conducted according to the method of Chang et al (T. Chang et al., BBA 942. 57-64 (1988)). The cells which were approximately in the almost confluent state were washed once with a D-MEM medium (pH 7.4) containing 0.1% BSA and 10 mM Hepes, and the buffer was added thereto. The mixture was incubated in 5% CO2 at 37° C. for 30 minutes. […] On the other hand, the non-specific uptake was conducted by adding 100 mM N-acetylgalactosamine in each of the labeled solutions. Each plate incubated was moved on an ice bath after the reaction. A part of the medium was sampled, and a D-PBS solution (free from Ca^2+ and Mg^2+) containing 20 mM EGTA cooled at 4° C. was added thereto. The mixture was allowed to stand for 5 minutes. This washing was repeated twice. Further, the plate was washed once with a D-PBS solution (free from Ca^2+ and Mg^2+) cooled, and then allowed to stand at −20° C. for 30 minutes or more. The radioactivity by the non-specific binding was subtracted from the radioactivity of 0.8 ml of 1 ml of the 0.1 N NaOH solution containing 0.5% SDS in each well, and the radioactivity of the total amount thereof was calculated from the above-obtained value. The thus-calculated value was defined as an amount of an uptake fraction. Meanwhile, a value obtained by subtracting the radioactivity by the non-specific degradation from the radioactivity of the total trichloroacetic acid-soluble fraction in the medium was defined as an amount of a degradation fraction. The uptake tast was conducted with each point of n=3. The total protein amount of the cells was calculated by the Lorry method with respect to 0.1 ml of the solution.

Compound	dissociation constant (Kd1) of high affinity site (ASGR)	time to saturation of uptake [1] [h]	degradation component ([1]; 0-4 hours)	uptake component in hepatocytes ([1]; 0-4 hours)
CC(C)(C)OC(=O)NC(Cc1ccc(O)cc1)C(=O)NCCCCCC(=O)NC(CCC(=O)NC(CCC(=O)NCCOCCOCCOC1OC(CO)C(O)C(O)C1O)C(=O)NCCOCCOCCOC1OC(CO)C(O)C(O)C1O)C(=O)NCCOCCOCCOC1OC(CO)C(O)C(O)C1O (centres unmarked) [(Gal)3-Tyr-Boc]	in the order level of multi-ten nM			
CC(=O)NC1C(OCCOCCOCCNC(=O)CCC(NC(=O)CCC(NC(=O)CCCCCNC(=O)C(Cc2ccc(O)cc2)NC(=O)OC(C)(C)C)C(=O)NCCOCCOCCOC2OC(CO)C(O)C(O)C2NC(C)=O)C(=O)NCCOCCOCCOC2OC(CO)C(O)C(O)C2NC(C)=O)OC(CO)C(O)C1O (centres unmarked) [(GalNAc)3-Tyr-Boc]	in the order level of multi-ten nM; also recorded: lower than that of (Gal)3-Tyr-Boc			
ASOR: asialoorosomucoid produced from human orosomucoid, natural ligand of ASGR		1	gradually increased with the lapse of time	observed after 30 minutes of the incubation
